Results published in patent US20050187191A1, “Methods and compositions for the treatment of respiratory syncytial virus” (priority 2004, published 2005).

Tests used:
RSV (Long strain) = experiment: RSV plaque assay with Hep-2 cell monolayers; type: cell-based; conditions: for EC50: human respiratory syncytial virus, 144 h, Hep-2 cell monolayers, RSV Long strain, 6 days of incubation, 0.4-50 μM in triplicate, read-out: Effective Conc. (EC50) RSV Plaque Count
Procedure: The ability of the active compounds to inhibit the growth of RSV was determined using a standard plaque assay with Hep-2 cell monolayers. The cell monolayers were infected with RSV (Long strain obtained from the American Tissue Culture Catalog, Cat# VR-26). After one hour of virus attachment, the cells were overlaid with medium containing methyl cellulose with or without serial concentrations of compound (0.4-50 μM). Each concentration was tested in triplicate. After 6 days of incubation, the overlay medium was aspirated and the cells fixed with absolute ethanol and stained with crystal violet to visualize RSV plaques and cell cytotoxicity using a 4× dissecting microscope. To determine the percent inhibition of RSV plaque formation, the mean number of RSV plaques in the presence of compound was divided by the number of RSV plaques in the control without added compounds. The quotient was subtracted from 1 and then multiplied by 100% to establish the % inhibition.

[1] = Toxicity test, 3H-thymidine incorporation (total DNA synthesis, cell growth); type: cell-based; conditions: cells in growth phase (cell line not given); 48 hours treatment, 6 hours 3H-thymidine pulse; highest concentration evaluated 100 μM; read-out: Toxic Conc. (TC50) Cell Growth
Procedure: Cells in growth phase were treated with serial concentrations of compound for 48 hours and pulse labeled with 3H-thymidine for 6 hours. The cells were then harvested to measure total DNA synthesis in the presence or absence of the compound (Kucera et al., Antiviral Chemistry and Chemotherapy, 9: i57-i65 (1998)).
TC50 determinations were calculated by the method of Chou et al. Elsvier: Amsterdam, 1985, as described in Piantadosi C. et al., Journal of Medicinal Chemistry, 34: 1408-1414 (1991). The TC50 for KPC-15 and KPC-11 were unable to be determined since at the highest concentration evaluated (100 μM), 50% toxicity was not observed. Thus, KPC-15 and KPC-11, lacked significant toxicity in vitro with the TC50>100 μM.

EC50 (RSV (Long strain)) [µM] | Structure (SMILES) | SI (Selectivity Index: TC50 Cell Growth divided by EC50 Plaque Inhibition) (RSV (Long strain)) | in vitro activity against RSV (in words) (RSV (Long strain)) | CC50 at 48 h [1] [µM]
3.5 | CCCCCCCCCC(=O)NCC(COP(=O)([O-])OCC[N+](C)(C)C)OCC (centres unmarked) [KPC-11, decylamido-2-ethoxypropylphosphocholine] | >28 | potent in vitro activity against RSV | > 100
2.4 | CCCCCCCCCCCC(=O)NCC(COP(=O)([O-])OCC[N+](C)(C)C)OCC (centres unmarked) [KPC-15, 3-dodecylamido-2-ethoxypropylphosphocholine] | >42 | potent in vitro activity against RSV | > 100
